# Test system: Bax and Bcl-2 in activated HSCs
# Test: Western-blot analysis of Bax and Bcl-2
# Type: cell-based, rat
# Settings: densitometry, three independent experiments
# Method: Dislodged cells were centrifuged at 800 x g/10 min and lysed with 100 μl lysis buffer. The protein concentration was determined using NanoOrange® Protein Quantitation Kit (Life Technologies) according to the manufacturer’s instructions. Briefly, protein solutions were mixed with the diluted NanoOrange reagent in 1.5 ml polypropylene tubes and heated at 95°C for 10 min in a thermomixer (Peqlab, Erlangen, Germany). Tubes were centrifuged and 200 μl of each sample were transferred to a black 96 well flat-bottom plate (Greiner BioOne, Frickenhausen, Germany). The emitted fluorescence was assessed at 570 nm in a SpectraMax Gemini EM (Molecular Devices, Biberach an der Riß, Germany). Protein concentrations were calculated from a bovine serum albumin standard curve. Equivalent amounts (10–50 μg) of protein were used in […]. Sample buffer (1:1) was added and the aliquots (20 μl final volume) were boiled for 5 min and subjected to 12% SDS-PAGE. After blocking for 1 h at room temperature in 10 mmol Tris-HCl, pH 7.5, 100 mmol NaCl, containing 0.1% Tween 20 and 3% bovine serum albumine (BSA), nitrocellulose-membranes were incubated either with polyclonal rabbit anti-rat antibodies to Bax (1:1000, sc-493), Bcl-2 (1:1000, sc783, both Santa Cruz, Santa Cruz, USA), α-actin (1:4000, A2547, Sigma) or β-actin (1:10,000, A5441, Sigma). Membranes were then washed in 10 mmol Tris-HCl, 100 mmol NaCl, 0.1% Tween 20, pH 7.5, and incubated with anti-rabbit IgG coupled to peroxidase (1:1000, A4416, Sigma) for 1 h at room temperature or directly developed (RC20H). Bands were detected with the ECL chemiluminescence reagent (Amersham-Pharmacia, Freiburg, Germany). After stripping in 0.1 M glycin-HCl, pH 2, for 20 min at room temperature, membranes were reprobed with appropriate primary and secondary antibodies. Band intensities were analyzed by densitometry and normalized to β-actin.
substance,measurement,setting,value
"CVI: Human collagen VI isolated from placentas by pepsin digestion; triple helical, soluble",Bax to Bcl-2 ratio,24 hours culture after serum starvation,1.0
same,"Bax protein level, fold lower compared to the medium or CI group","24 hours, p<0.05",6-7 fold

# Source: publication PMC8412337, “Alpha-single chains of collagen type VI inhibit the fibrogenic effects of triple helical collagen VI in hepatic stellate cells” (PLoS ONE, 2021)
